Measured values published in patent publication US12404262B2 (priority 2021, dated 2025).
Values after ≈ are worked out from the molar mass of the structure shown.

Assays:
[1] = 1.0% DMSO, 24-hour incubation at ambient temperature, maximum theoretical 100 μM; for pH 2 solubility: 0.1N HCl, first value of the cell; for pH 7 solubility: 1×PBS buffer (pH 7.4), second value of the cell
[2] = Solubility in simulated intestinal fluids (FaSSIF/FeSSIF); settings: 25 °C, thermodynamic from solid
[3] = fasted state simulated intestinal fluid (FaSSIF), fassif
[4] = fed state simulated intestinal fluid (FeSSIF), fessif

## CC(C)(C#Cc1ccc(-c2ccc(Cl)c3c(N(C(=O)OCCCP(=O)(O)O)S(C)(=O)=O)nn(CC(F)(F)F)c23)c([C@H](Cc2cc(F)cc(F)c2)NC(=O)Cn2nc(C(F)(F)F)c3c2C(F)(F)[C@@H]2C[C@H]32)n1)S(C)(=O)=O [Compound 112, (3-(((4-chloro-7-(2-((S)-1-(2-((3bS,4aR)-5,5-difluoro-3-(trifluoromethyl)-3b,4,4a,5-tetrahydro-1H-cyclopropa[3,4]cyclopenta[1,2-c]pyrazol-1-yl)acetamido)-2-(3,5-difluorophenyl)ethyl)-6-(3-methyl-3-(methylsulfonyl)but-1-yn-1-yl)pyridin-3-yl)-1-(2,2,2-trifluoroethyl)-1H-indazol-3-yl)(methylsulfonyl)carbamoyl)oxy)propyl)phosphonic acid]
[1]
  pH 2 solubility: 1 μM
  pH 7 solubility: 77 μM
[2]; [3]
  solubility: 778 µg/mL (≈ 686 µM)
[2]; [4]
  solubility: 1250 µg/mL (≈ 1100 µM)

## CC(C)(C#Cc1ccc(-c2ccc(Cl)c3c(N(C(=O)N(CCNC(=O)OCOP(=O)(O)O)CCC(=O)O)S(C)(=O)=O)nn(CC(F)(F)F)c23)c([C@H](Cc2cc(F)cc(F)c2)NC(=O)Cn2nc(C(F)(F)F)c3c2C(F)(F)[C@@H]2C[C@H]32)n1)S(C)(=O)=O [Compound 80, 3-(3-(4-chloro-7-(2-((S)-1-(2-((3bS,4aR)-5,5-difluoro-3-(trifluoromethyl)-3b,4,4a,5-tetrahydro-1H-cyclopropa[3,4]cyclopenta[1,2-c]pyrazol-1-yl)acetamido)-2-(3,5-difluorophenyl)ethyl)-6-(3-methyl-3-(methylsulfonyl)but-1-yn-1-yl)pyridin-3-yl)-1-(2,2,2-trifluoroethyl)-1H-indazol-3-yl)-3-(methylsulfonyl)-1-(2-((((phosphonooxy)methoxy)carbonyl)amino)ethyl)ureido)propanoic acid]
[1]
  pH 2 solubility: 6 μM
  pH 7 solubility: 100 μM
[2]; [3]
  solubility: 7550 µg/mL (≈ 5900 µM)
[2]; [4]
  solubility: 1720 µg/mL (≈ 1350 µM)

## C[C@@H](N)C(=O)OCN(c1nn(CC(F)(F)F)c2c(-c3ccc(C#CC(C)(C)S(C)(=O)=O)nc3[C@H](Cc3cc(F)cc(F)c3)NC(=O)Cn3nc(C(F)(F)F)c4c3C(F)(F)[C@@H]3C[C@H]43)ccc(Cl)c12)S(C)(=O)=O [Compound 26, (N-(4-chloro-7-(2-((S)-1-(2-((3bS,4aR)-5,5-difluoro-3-(trifluoromethyl)-3b,4,4a,5-tetrahydro-1H-cyclopropa[3,4]cyclopenta[1,2-c]pyrazol-1-yl)acetamido)-2-(3,5-difluorophenyl)ethyl)-6-(3-methyl-3-(methylsulfonyl)but-1-yn-1-yl)pyridin-3-yl)-1-(2,2,2-trifluoroethyl)-1H-indazol-3-yl)methylsulfonamido)methyl D-alaninate]
[1]
  pH 2 solubility: 23 μM
  pH 7 solubility: 2 μM
[2]; [3]
  solubility: 13 µg/mL (≈ 12.2 µM)
[2]; [4]
  solubility: 89 µg/mL (≈ 83.2 µM)

## CC(C)(C#Cc1ccc(-c2ccc(Cl)c3c(N(C(=O)OCCNC(=O)C(=O)O)S(C)(=O)=O)nn(CC(F)(F)F)c23)c([C@H](Cc2cc(F)cc(F)c2)NC(=O)Cn2nc(C(F)(F)F)c3c2C(F)(F)[C@@H]2C[C@H]32)n1)S(C)(=O)=O [Compound 122, 2-((2-(((4-chloro-7-(2-((S)-1-(2-((3bS,4aR)-5,5-difluoro-3-(trifluoromethyl)-3b,4,4a,5-tetrahydro-1H-cyclopropa[3,4]cyclopenta[1,2-c]pyrazol-1-yl)acetamido)-2-(3,5-difluorophenyl)ethyl)-6-(3-methyl-3-(methylsulfonyl)but-1-yn-1-yl)pyridin-3-yl)-1-(2,2,2-trifluoroethyl)-1H-indazol-3-yl)(methylsulfonyl)carbamoyl)oxy)ethyl)amino)-2-oxoacetic acid]
[1]
  pH 2 solubility: 1 μM
  pH 7 solubility: 16 μM
[2]; [3]
  solubility: 7 µg/mL (≈ 6.21 µM)
[2]; [4]
  solubility: 162 µg/mL (≈ 144 µM)

## CC(C)(C#Cc1ccc(-c2ccc(Cl)c3c(N(C(=O)N[C@](C)(CO)CC(=O)O)S(C)(=O)=O)nn(CC(F)(F)F)c23)c([C@H](Cc2cc(F)cc(F)c2)NC(=O)Cn2nc(C(F)(F)F)c3c2C(F)(F)[C@@H]2C[C@H]32)n1)S(C)(=O)=O [Compound 66, (S)-3-(3-(4-chloro-7-(2-((S)-1-(2-((3bS,4aR)-5,5-difluoro-3-(trifluoromethyl)-3b,4,4a,5-tetrahydro-1H-cyclopropa[3,4]cyclopenta[1,2-c]pyrazol-1-yl)acetamido)-2-(3,5-difluorophenyl)ethyl)-6-(3-methyl-3-(methylsulfonyl)but-1-yn-1-yl)pyridin-3-yl)-1-(2,2,2-trifluoroethyl)-1H-indazol-3-yl)-3-(methylsulfonyl)ureido)-4-hydroxy-3-methylbutanoic acid]
[1]
  pH 2 solubility: 1 μM
  pH 7 solubility: 10 μM
[2]; [3]
  solubility: 425 µg/mL (≈ 377 µM)
[2]; [4]
  solubility: 140 µg/mL (≈ 124 µM)

## CC(C)(C#Cc1ccc(-c2ccc(Cl)c3c(N(C(=O)N(CCCC(=O)O)CCNC(=O)OCOP(=O)(O)O)S(C)(=O)=O)nn(CC(F)(F)F)c23)c([C@H](Cc2cc(F)cc(F)c2)NC(=O)Cn2nc(C(F)(F)F)c3c2C(F)(F)[C@@H]2C[C@H]32)n1)S(C)(=O)=O [Compound 82]
[1]
  pH 2 solubility: 2 μM
  pH 7 solubility: 100 μM
[2]; [3]
  solubility: 2680 µg/mL (≈ 2070 µM)
[2]; [4]
  solubility: 1800 µg/mL (≈ 1390 µM)

## CC(C)(C#Cc1ccc(-c2ccc(Cl)c3c(N(C(=O)OC[C@H](CC(=O)O)NC(=O)C(=O)O)S(C)(=O)=O)nn(CC(F)(F)F)c23)c([C@H](Cc2cc(F)cc(F)c2)NC(=O)Cn2nc(C(F)(F)F)c3c2C(F)(F)[C@@H]2C[C@H]32)n1)S(C)(=O)=O [Compound 131]
[1]
  pH 2 solubility: 1 μM
  pH 7 solubility: 73 μM
[2]; [3]
  solubility: 816 µg/mL (≈ 688 µM)
[2]; [4]
  solubility: 427 µg/mL (≈ 360 µM)

## CN(C(=O)N(c1nn(CC(F)(F)F)c2c(-c3ccc(C#CC(C)(C)S(C)(=O)=O)nc3[C@H](Cc3cc(F)cc(F)c3)NC(=O)Cn3nc(C(F)(F)F)c4c3C(F)(F)[C@@H]3C[C@H]43)ccc(Cl)c12)S(C)(=O)=O)[C@@H](CC(=O)O)C(=O)OCOP(=O)(O)O [Compound 88, (S)-3-(3-(4-chloro-7-(2-((S)-1-(2-((3bS,4aR)-5,5-difluoro-3-(trifluoromethyl)-3b,4,4a,5-tetrahydro-1H-cyclopropa[3,4]cyclopenta[1,2-c]pyrazol-1-yl)acetamido)-2-(3,5-difluorophenyl)ethyl)-6-(3-methyl-3-(methylsulfonyl)but-1-yn-1-yl)pyridin-3-yl)-1-(2,2,2-trifluoroethyl)-1H-indazol-3-yl)-1-methyl-3-(methylsulfonyl)ureido)-4-oxo-4-((phosphonooxy)methoxy)butanoic acid]
[1]
  pH 2 solubility: 1 μM
  pH 7 solubility: 15 μM
[2]; [3]
  solubility: 841 µg/mL (≈ 672 µM)
[2]; [4]
  solubility: 589 µg/mL (≈ 471 µM)

## CN(CC(=O)O)C(=O)N(c1nn(CC(F)(F)F)c2c(-c3ccc(C#CC(C)(C)S(C)(=O)=O)nc3[C@H](Cc3cc(F)cc(F)c3)NC(=O)Cn3nc(C(F)(F)F)c4c3C(F)(F)[C@@H]3C[C@H]43)ccc(Cl)c12)S(C)(=O)=O [Compound 44, N-((4-chloro-7-(2-((S)-1-(2-((3bS,4aR)-5,5-difluoro-3-(trifluoromethyl)-3b,4,4a,5-tetrahydro-1H-cyclopropa[3,4]cyclopenta[1,2-c]pyrazol-1-yl)acetamido)-2-(3,5-difluorophenyl)ethyl)-6-(3-methyl-3-(methylsulfonyl)but-1-yn-1-yl)pyridin-3-yl)-1-(2,2,2-trifluoroethyl)-1H-indazol-3-yl)(methylsulfonyl)carbamoyl)-N-methylglycine]
[1]
  pH 2 solubility: 1 μM
  pH 7 solubility: 9 μM
[2]; [3]
  solubility: 10 µg/mL (≈ 9.23 µM)
[2]; [4]
  solubility: 10 µg/mL (≈ 9.23 µM)

## CC(C)(C#Cc1ccc(-c2ccc(Cl)c3c(N(C(=O)NCCNC(=N)N)S(C)(=O)=O)nn(CC(F)(F)F)c23)c([C@H](Cc2cc(F)cc(F)c2)NC(=O)Cn2nc(C(F)(F)F)c3c2C(F)(F)[C@@H]2C[C@H]32)n1)S(C)(=O)=O [Compound 76]
[2]; [3]
  solubility: 7 µg/mL (≈ 6.38 µM)
[2]; [4]
  solubility: 68 µg/mL (≈ 62 µM)

## CC(C)(C#Cc1ccc(-c2ccc(Cl)c3c(N(C(=O)OCCCS(=O)(=O)O)S(C)(=O)=O)nn(CC(F)(F)F)c23)c([C@H](Cc2cc(F)cc(F)c2)NC(=O)Cn2nc(C(F)(F)F)c3c2C(F)(F)[C@@H]2C[C@H]32)n1)S(C)(=O)=O [Compound 111, 3-(((4-chloro-7-(2-((S)-1-(2-((3bS,4aR)-5,5-difluoro-3-(trifluoromethyl)-3b,4,4a,5-tetrahydro-1H-cyclopropa[3,4]cyclopenta[1,2-c]pyrazol-1-yl)acetamido)-2-(3,5-difluorophenyl)ethyl)-6-(3-methyl-3-(methylsulfonyl)but-1-yn-1-yl)pyridin-3-yl)-1-(2,2,2-trifluoroethyl)-1H-indazol-3-yl)(methylsulfonyl)carbamoyl)oxy)propane-1-sulfonic acid]
[1]
  pH 2 solubility: 33 μM
  pH 7 solubility: 42 μM

## CC(C)(C#Cc1ccc(-c2ccc(Cl)c3c(N(C(=O)O[C@H](C(=O)O)[C@H](O)C(=O)O)S(C)(=O)=O)nn(CC(F)(F)F)c23)c([C@H](Cc2cc(F)cc(F)c2)NC(=O)Cn2nc(C(F)(F)F)c3c2C(F)(F)[C@@H]2C[C@H]32)n1)S(C)(=O)=O [Compound 118, (2S,3S)-2-(((4-chloro-7-(2-((S)-1-(2-((3bS,4aR)-5,5-difluoro-3-(trifluoromethyl)-3b,4,4a,5-tetrahydro-1H-cyclopropa[3,4]cyclopenta[1,2-c]pyrazol-1-yl)acetamido)-2-(3,5-difluorophenyl)ethyl)-6-(3-methyl-3-(methylsulfonyl)but-1-yn-1-yl)pyridin-3-yl)-1-(2,2,2-trifluoroethyl)-1H-indazol-3-yl)(methylsulfonyl)carbamoyl)oxy)-3-hydroxysuccinic acid]
[1]
  pH 2 solubility: 1/1 μM
  pH 7 solubility: 1/1 μM
